From patent US20170042936A1, “COMPOSITION FOR LOCAL AND CONTROLLED RELEASE OF DRUGS AND METHODS THEREOF” (INEB - INSTITUTO NACIONAL DE ENGENHARIA BIOMÉDICA, priority 2014, published 2017)
“Also recorded” adds a separate entry of the source.

Tests used:
MC3T3-E1 cells [1] = assay: Cell morphology on granules by SEM and confocal laser scanning microscopy; format: cell-based, mouse; settings: in presence of vancomycin
Experimental: (§1) The pre-osteoblasts MC3T3-E1 cells, an osteoblastic cell line derived from mouse calvaria, were grown in alpha minimum essential medium (α-MEM, Gibco, Life Technologies, Grand Island, N.Y.), supplemented with 1% penicillinstreptomycin (Gibco) and 10% fetal bovine serum (FBS, Invitrogen, Carlsbad, Calif.). Cells were incubated in a humidified environment at 37° C. and 5% of CO2. Vancomycin adsorption on granules was performed as mentioned earlier. Granules were placed in 96-well plates, and cells were seeded using a density of 5×10^4 cells/mL. Cells were cultured for 21 days, and medium was changed three times a week. As control, cells were cultured on tissue culture polystyrene (TCPS) with the same conditions used for the granules. For each condition, six replicates were used for the resazurin assay.
Granules with seeded cells were rinsed with PBS and fixer using 1.5% gluteraldehyde (v/v) (Agar) in 0.14 M sodium cacodyl-ate buffer (Merck, Kenilworth, N.J.) at RT for 30 min. The samples were washed twice with PBS and then dehydrated in graded series of ethanol. Hexamethyldisilazane (Sigma) was added, and the samples were dried overnight at RT. Granules were visualized on SEM as previously described.
Confocal laser scanning microscopy. Granules with seeded cells were fixed using 4% paraformaldehyde for 15 min and then washed twice with PBS. Triton X-100 0.1% was used, for 5 min, to permeabilize the cells, and the cells were then incubated in 1% bovine serum albumin at 37° C. for 30 min. After incubation, the staining of the F-actin filaments was performed using Alexa Fluor 594 Phalloidin (1:100, Molecular Probes A12379, Invitrogen) in 1% bovine serum albumin at RT for 20 min in dark. The samples were then washed twice with PBS. Cell nuclei were stained with a solution of Hoechst dye (1:1000, Sigma) in PBS at RT for 15 min in dark. Finally, the samples were washed twice with PBS, and one drop of Vectashield was added. The images were acquired with a Leica SP5 Confocal microscope, using a […] oil immersion objective. […]

S. aureus ATCC 25923 = settings: cited from earlier work
MC3T3-E1 cells [2] = assay: Metabolic activity of pre-osteoblasts (resazurin) in presence of released vancomycin; format: cell-based, mouse
Experimental: as §1
In an embodiment, the metabolic activity was also performed. The nontoxic alamar blue (resazurin) dye was used to determine the metabolic activity of MC3T3-E1 cells. The blue nonfluorescent dye is metabolized by cells, converting it to a reduced pink fluorescence dye. Therefore, 10% (v/v) of resazurin was added to the medium and incubated for 4 h at 37° C. and 5% of CO2. Afterward, 100 μL was transferred into a black 96-well plate, and fluorescence was measured at 530 nm excitation and 590 nm emission wavelength with a fluorescence reader (SynergyMix, BioTek, Winooski, Vt.) using Gen5 1.09 Data Analysis Software. These measurements were made at 24 h and 4, 7, 14, and 21 days of culture.

CN[C@H](CC(C)C)C(=O)N[C@H]1C(=O)N[C@@H](CC(N)=O)C(=O)N[C@H]2C(=O)N[C@H]3C(=O)N[C@H](C(=O)N[C@H](C(=O)O)c4cc(O)cc(O)c4-c4cc3ccc4O)[C@H](O)c3ccc(c(Cl)c3)Oc3cc2cc(c3O[C@@H]2O[C@H](CO)[C@@H](O)[C@H](O)[C@H]2O[C@H]2C[C@](C)(N)[C@H](O)[C@H](C)O2)Oc2ccc(cc2Cl)[C@H]1O [vancomycin]
MC3T3-E1 cell morphology (confocal microscopy) (MC3T3-E1 cells [1]; 24 h and 4 days): more rounded morphology | MC3T3-E1 cell morphology (confocal microscopy) (MC3T3-E1 cells [1]; after 7 days): started to elongate on the surface of the material | MC3T3-E1 cell morphology (confocal microscopy) (MC3T3-E1 cells [1]; after 14 days): well spread, covering the entire surface | vancomycin minimum inhibitory concentration (MIC) (S. aureus ATCC 25923): 1 µg/mL | viability of osteoblast cells in presence of vancomycin (MC3T3-E1 cells [2]; vancomycin released from heparinized granules, after 14 days of culture): cells were able to remain viable; also recorded: did not affect the viability of MC3T3-E1 cells | metabolic activity of MC3T3-E1 cells versus without vancomycin (MC3T3-E1 cells [2]; vancomycin released from heparinized nanoHA/collagen granules, 24 h of culture): no difference in the metabolic activity | metabolic activity of MC3T3-E1 cells (MC3T3-E1 cells [2]; vancomycin released from heparinized nanoHA/collagen granules, after 14 days up to 21 days of culture): increased their metabolic activity | metabolic activity of MC3T3-E1 cells (MC3T3-E1 cells [2]; vancomycin released from heparinized nanoHA/collagen granules, until 7 days of culture): decrease in metabolic activity
